Active and inactive are the calls of the source.
How the values were obtained:
[1] = molecular target: Alkaline phosphatase, placental type (Homo sapiens, UniProt P05187); experiment: human placental alkaline phosphatase inhibition – biochemical, luminescence, confirmation (AID 1512); type: functional
[2] = molecular target: T1, Alkaline phosphatase, tissue-nonspecific isozyme (Homo sapiens, UniProt P05186); experiment: potency against alkaline phosphatase TNAP – biochemical, luminescent, dose response, SAR follow-up (AID 1056)
T1 sequence (P05186 whole entry): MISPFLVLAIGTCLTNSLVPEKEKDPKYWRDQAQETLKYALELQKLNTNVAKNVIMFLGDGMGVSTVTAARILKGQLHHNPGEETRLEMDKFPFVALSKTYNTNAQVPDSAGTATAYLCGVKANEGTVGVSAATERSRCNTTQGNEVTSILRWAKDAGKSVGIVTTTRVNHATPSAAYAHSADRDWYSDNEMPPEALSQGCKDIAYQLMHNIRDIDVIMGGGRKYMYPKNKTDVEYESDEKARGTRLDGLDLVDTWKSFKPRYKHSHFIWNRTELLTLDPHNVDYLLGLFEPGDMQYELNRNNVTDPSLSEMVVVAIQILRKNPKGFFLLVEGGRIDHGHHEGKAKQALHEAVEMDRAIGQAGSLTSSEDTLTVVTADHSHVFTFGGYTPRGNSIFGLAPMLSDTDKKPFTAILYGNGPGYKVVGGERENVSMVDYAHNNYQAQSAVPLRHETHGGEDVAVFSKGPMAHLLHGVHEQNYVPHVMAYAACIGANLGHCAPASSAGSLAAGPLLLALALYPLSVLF

[3] = molecular target: Glyceraldehyde-3-phosphate dehydrogenase (Homo sapiens, UniProt P04406)
[4] = molecular target: Peroxisome proliferator-activated receptor gamma/Nuclear receptor coactivator 2 (Homo sapiens, UniProt P37231); type: functional;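 further: agonist potency for raising coactivator recruitment to the receptor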
[5] = molecular target: T2, Voltage-gated N-type calcium channel alpha-1B subunit/Amyloid beta A4 precursor protein-binding family A member 1 (Homo sapiens, UniProt Q00975+Q02410); type: protein assay
[6] = molecular target: DNA dC->dU-editing enzyme APOBEC-3G (Homo sapiens, UniProt Q9HC16); experiment: Dose Response confirmation of small molecule APOBEC3G DNA Deaminase Inhibitors via a fluorescence-based single-stranded DNA deaminase assay. [Related pubchem assays (depositor defined):AID493012, AID493028]; type: functional
[7] = molecular target: Peroxisome proliferator-activated receptor gamma/Nuclear receptor coactivator 3 (Homo sapiens, UniProt P37231); type: functional;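 further: agonist potency for raising coactivator recruitment to the receptor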
[8] = molecular target: Peroxisome proliferator-activated receptor gamma/Nuclear receptor coactivator 1 (Homo sapiens, UniProt P37231); type: functional;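 further: agonist potency as compounds enhance coactivator SRC-1 recruitment to PPARgamma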
[9] = molecular target: T2, Voltage-gated N-type calcium channel alpha-1B subunit/Amyloid beta A4 precursor protein-binding family A member 1; type: protein assay; remark: listed apart in the source
[10] = HEK-293T viability loss after treatment – luminescence, T-cell screen hits, cytotoxicity control for TCR NF-kB inhibitor project, dose response (AID 489026); type: functional, cell-based;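 further: cells exposed to compound about 14 hours before the viability readout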
Large T antigen = Large T antigen (Simian virus 40, UniProt P03070); type: functional, Betapolyomavirus macacae;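 further: Confirmatory-stage PubChem screen for compounds that inhibit SV40 T antigen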
[11] = Luminescence Cell-Based Dose Response HTS to Identify Inhibitors of 5'UTR Stem-Loop Driven Prion Protein mRNA Translation in H4 Neuroglioblastoma Cells. [Related pubchem assays: 1827 (Project Summary), 1813 (Primary HTS)]; type: functional
BJ [12] = experiment: BJ-TERT-LT-ST fibroblast viability loss – cell-based, RAS-independent, luminescence, dose response (AID 1935); type: functional; details: Homo sapiens;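 further: BJ fibroblasts immortalized with TERT plus LT and ST oncogenes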
[13] = DRD fibroblast viability loss – cell-based, non-viral oncogenic, luminescence, dose response (AID 1934); type: functional; details: Homo sapiens
BJ [14] = experiment: BJ-TERT fibroblast viability loss – cell-based, RAS-independent, luminescence, dose response (AID 1933); type: functional; details: Homo sapiens
[15] = molecular target: Glucose-6-phosphate 1-dehydrogenase (Homo sapiens, UniProt P11413); experiment: inhibition of Homo sapiens G6PD, dose series – biochemical, fluorescence, selectivity assay for P. falciparum G6PD inhibitor project, dose response (AID 504792); type: functional
[16] = alpha-synuclein stem-loop luciferase translation blockers – H4 neuroglioma cells, luminescence, confirmation (AID 1988); type: functional, cell-based
[17] = molecular target: Heat shock protein HSP 90-alpha (Homo sapiens, UniProt P07900); type: functional, organism-based
Streptokinase A = molecular target: T3, Streptokinase A (Streptococcus pyogenes serotype M1, UniProt P10520); experiment: viability-normalized secreted streptokinase activity reduction – plasminogen activation absorbance, OD405, dose response (AID 1914); type: functional, Streptococcus pyogenes M1 GAS;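 further: secreted streptokinase activity via plasminogen activation per viability signal from cell pellet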
T3 sequence (P10520 whole entry): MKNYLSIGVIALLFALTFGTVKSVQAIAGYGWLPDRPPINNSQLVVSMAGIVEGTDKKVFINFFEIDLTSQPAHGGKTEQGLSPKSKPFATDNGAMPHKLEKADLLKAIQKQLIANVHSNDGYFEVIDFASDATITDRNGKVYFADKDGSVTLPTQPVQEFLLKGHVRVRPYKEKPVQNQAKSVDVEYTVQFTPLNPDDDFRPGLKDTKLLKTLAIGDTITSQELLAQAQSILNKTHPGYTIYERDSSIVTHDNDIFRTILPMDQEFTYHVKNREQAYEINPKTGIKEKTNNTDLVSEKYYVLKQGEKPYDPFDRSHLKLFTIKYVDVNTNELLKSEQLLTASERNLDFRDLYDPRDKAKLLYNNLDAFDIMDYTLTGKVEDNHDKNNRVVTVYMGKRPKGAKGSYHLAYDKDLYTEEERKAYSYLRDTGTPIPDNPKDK

[18] = test system: Streptococcus sp. 'group A'; experiment: Streptococcus pyogenes SK(-)GAS viability under kanamycin – luminescence, BacTiterGlo, confirmation, counter-screen for streptokinase expression inhibitor project, dose response (AID 1900); type: functional, organism-based
BJ [19] = experiment: cells; type: functional, cell-based; details: Homo sapiens
[20] = luciferase reporter signal suppression in cells – H4 neuroglioma cells, luminescence, dose response (AID 1990); type: functional, cell-based
INS1 = experiment: INS-1E survival protection against cytokine death – cell-based, luminescence, retest, dose response (AID 449756); type: functional; details: Rattus norvegicus;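 further: cell death triggered by IL-1 beta plus TNF-alpha plus IFN-gamma mixture; protective hits raise ATP signal compared with cytokine alone wells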
Streptococcus = experiment: GAS UMAA2166 growth inhibition – luminescence, BacTiterGlo, counter-screen for streptokinase expression inhibitor project, dose response (AID 1915); type: functional, organism-based;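 further: potency for reduction of bacterial viability or growth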
[21] = molecular target: T1, Alkaline phosphatase, tissue-nonspecific isozyme; experiment: TNAP enzyme inhibition by screening hits, dose response, selectivity assay for mouse IAP inhibitor project, biochemical, human TNAP, uHTS hits (AID 488906); type: functional
[22] = molecular target: Intestinal-type alkaline phosphatase (Homo sapiens, UniProt P09923); experiment: inhibition of human intestinal alkaline phosphatase – biochemical, dose response (AID 488876); type: functional
[23] = molecular target: Intestinal-type alkaline phosphatase (Mus musculus, UniProt P24822); experiment: PubChem AID 488785; type: functional

T2 sequence (Q00975 whole entry): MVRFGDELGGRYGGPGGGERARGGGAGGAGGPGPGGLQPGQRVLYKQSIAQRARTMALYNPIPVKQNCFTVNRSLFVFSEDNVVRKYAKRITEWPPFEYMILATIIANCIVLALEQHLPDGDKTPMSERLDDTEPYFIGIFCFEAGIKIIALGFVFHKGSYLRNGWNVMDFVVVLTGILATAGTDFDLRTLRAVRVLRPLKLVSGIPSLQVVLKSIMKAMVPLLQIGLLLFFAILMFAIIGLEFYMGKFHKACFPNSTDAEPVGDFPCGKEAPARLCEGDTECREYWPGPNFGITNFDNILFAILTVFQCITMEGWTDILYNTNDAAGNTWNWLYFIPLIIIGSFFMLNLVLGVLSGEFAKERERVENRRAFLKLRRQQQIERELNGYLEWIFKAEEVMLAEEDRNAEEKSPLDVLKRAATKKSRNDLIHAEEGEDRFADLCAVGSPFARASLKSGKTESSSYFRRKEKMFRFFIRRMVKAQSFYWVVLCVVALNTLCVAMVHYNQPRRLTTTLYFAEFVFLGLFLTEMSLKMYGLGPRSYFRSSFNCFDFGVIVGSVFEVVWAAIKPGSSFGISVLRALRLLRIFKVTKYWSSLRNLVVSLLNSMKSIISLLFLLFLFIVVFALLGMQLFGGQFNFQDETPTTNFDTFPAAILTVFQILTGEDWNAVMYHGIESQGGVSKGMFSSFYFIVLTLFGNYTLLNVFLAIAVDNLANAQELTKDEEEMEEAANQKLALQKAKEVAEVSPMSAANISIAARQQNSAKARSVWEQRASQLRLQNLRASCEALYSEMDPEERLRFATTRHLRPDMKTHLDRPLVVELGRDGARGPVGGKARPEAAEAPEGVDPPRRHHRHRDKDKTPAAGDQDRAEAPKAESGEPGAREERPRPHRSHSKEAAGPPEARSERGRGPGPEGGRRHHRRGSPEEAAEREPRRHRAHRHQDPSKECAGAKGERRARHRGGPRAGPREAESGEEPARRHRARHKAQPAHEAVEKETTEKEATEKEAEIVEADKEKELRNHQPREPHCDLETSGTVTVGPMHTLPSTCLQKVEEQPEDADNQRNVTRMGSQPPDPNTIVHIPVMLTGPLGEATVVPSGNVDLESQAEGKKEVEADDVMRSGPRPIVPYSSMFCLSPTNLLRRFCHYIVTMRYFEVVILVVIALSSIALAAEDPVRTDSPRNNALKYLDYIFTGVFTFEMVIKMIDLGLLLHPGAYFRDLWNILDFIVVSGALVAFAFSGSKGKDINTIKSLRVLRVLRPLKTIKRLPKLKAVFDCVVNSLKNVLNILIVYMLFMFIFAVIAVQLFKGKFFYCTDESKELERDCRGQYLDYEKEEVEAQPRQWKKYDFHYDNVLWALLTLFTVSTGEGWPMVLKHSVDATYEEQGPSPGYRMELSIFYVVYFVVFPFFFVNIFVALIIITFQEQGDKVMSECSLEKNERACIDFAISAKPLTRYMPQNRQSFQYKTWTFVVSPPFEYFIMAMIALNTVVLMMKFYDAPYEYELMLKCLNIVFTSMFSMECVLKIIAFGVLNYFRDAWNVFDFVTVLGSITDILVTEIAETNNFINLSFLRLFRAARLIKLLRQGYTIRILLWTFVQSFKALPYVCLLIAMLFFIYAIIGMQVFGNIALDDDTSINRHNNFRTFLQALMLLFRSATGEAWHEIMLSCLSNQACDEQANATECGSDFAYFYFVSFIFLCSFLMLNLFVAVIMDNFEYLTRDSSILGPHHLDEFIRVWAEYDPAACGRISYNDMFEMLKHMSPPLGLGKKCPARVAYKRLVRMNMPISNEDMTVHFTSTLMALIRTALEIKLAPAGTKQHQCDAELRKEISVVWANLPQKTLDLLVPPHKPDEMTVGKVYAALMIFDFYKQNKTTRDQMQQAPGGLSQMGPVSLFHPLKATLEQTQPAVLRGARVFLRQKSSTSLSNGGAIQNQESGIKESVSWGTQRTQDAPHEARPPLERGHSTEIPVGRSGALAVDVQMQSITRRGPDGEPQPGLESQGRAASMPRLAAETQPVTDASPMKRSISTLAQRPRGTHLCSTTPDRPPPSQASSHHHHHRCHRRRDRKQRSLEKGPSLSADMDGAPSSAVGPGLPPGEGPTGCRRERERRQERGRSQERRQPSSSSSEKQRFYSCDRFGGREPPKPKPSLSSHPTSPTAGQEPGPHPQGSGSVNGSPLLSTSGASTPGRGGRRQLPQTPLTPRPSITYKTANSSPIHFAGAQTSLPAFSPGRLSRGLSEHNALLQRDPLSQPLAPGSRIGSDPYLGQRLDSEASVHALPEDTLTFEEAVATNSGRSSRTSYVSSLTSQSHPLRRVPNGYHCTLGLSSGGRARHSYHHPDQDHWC
T2 sequence (Q02410 whole entry): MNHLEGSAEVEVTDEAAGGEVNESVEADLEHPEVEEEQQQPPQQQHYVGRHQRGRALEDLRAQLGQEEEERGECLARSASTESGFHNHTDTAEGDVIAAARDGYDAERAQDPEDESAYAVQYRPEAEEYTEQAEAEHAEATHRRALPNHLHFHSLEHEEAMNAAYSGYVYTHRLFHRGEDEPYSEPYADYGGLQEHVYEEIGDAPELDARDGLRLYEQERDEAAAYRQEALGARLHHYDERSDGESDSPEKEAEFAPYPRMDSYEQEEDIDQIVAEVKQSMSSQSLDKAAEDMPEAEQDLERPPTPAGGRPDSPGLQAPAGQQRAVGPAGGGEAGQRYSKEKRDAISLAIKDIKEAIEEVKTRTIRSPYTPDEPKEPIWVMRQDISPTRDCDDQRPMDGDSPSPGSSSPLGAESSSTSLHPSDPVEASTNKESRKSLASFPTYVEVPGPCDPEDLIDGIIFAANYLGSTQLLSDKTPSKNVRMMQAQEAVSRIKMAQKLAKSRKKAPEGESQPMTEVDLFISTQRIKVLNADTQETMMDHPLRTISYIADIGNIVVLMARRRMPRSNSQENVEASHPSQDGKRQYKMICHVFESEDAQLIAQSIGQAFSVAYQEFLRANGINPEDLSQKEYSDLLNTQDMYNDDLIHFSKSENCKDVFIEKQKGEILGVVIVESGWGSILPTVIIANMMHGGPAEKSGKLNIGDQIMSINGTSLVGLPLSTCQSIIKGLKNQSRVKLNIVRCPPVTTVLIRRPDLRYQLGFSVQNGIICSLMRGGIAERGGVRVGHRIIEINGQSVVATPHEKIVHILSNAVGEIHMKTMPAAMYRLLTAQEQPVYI
Chain of Alkaline phosphatase, placental type (P05187 whole entry): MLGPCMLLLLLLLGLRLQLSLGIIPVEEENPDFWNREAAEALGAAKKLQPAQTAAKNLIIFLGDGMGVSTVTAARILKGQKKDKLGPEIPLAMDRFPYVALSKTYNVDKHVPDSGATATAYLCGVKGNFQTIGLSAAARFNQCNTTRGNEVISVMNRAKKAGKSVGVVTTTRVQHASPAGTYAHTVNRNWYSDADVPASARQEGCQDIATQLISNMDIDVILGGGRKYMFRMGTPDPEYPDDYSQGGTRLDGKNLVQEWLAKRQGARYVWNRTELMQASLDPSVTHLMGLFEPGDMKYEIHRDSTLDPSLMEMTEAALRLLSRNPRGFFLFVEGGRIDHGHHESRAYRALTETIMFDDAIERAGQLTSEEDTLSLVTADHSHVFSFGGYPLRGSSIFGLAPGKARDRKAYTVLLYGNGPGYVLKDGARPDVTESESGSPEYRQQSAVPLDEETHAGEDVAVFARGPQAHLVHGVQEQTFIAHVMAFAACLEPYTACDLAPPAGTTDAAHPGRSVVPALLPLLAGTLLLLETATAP
Chain of Glucose-6-phosphate 1-dehydrogenase (P11413 whole entry): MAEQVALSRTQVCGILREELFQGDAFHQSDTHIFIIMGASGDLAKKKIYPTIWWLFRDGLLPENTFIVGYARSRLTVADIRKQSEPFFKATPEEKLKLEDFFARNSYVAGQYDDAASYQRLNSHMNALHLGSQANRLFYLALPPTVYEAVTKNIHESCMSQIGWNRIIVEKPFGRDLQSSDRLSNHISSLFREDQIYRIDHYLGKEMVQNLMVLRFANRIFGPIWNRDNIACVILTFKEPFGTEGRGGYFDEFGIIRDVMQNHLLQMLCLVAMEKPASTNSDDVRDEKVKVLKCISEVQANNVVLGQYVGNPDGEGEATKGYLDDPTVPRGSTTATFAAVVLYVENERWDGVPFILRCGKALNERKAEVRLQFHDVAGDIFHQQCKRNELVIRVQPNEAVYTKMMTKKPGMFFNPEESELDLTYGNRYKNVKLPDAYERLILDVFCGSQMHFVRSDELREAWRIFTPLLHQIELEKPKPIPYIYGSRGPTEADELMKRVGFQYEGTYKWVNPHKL
Chain of Large T antigen (P03070 whole entry): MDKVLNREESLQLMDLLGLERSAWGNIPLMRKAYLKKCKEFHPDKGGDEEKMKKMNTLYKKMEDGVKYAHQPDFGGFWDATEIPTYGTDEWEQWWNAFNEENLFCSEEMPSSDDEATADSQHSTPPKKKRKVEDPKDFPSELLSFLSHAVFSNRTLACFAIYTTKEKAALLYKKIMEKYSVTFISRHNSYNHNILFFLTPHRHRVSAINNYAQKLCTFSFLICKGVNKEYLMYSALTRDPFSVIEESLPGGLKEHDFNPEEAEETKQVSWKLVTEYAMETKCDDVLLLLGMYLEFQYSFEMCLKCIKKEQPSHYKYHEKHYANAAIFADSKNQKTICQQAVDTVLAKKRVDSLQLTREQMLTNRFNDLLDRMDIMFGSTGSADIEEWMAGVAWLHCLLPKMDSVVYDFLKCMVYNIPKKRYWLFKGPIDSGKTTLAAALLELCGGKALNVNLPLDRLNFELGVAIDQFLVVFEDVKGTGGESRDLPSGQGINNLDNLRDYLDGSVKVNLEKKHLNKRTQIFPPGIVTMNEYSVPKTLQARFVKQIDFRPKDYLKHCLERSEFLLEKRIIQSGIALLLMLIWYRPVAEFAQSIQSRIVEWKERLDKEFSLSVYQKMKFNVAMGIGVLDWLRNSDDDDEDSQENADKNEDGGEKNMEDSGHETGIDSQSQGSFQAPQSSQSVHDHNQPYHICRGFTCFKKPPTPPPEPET

CC1(C)CC(=O)c2c(/C=C/c3ccccc3)n[nH]c2C1
IC50 [1]: > 100 µM (inactive)
IC50 [2]: > 100 µM (inactive)
IC50 [3]: > 100 µM (not active)

CCn1ncc(/C=N/NC(=O)c2ccc3c(c2)c(C)c(C)n3Cc2ccccc2)c1C
IC50 [1]: > 100 µM (inactive)

CCc1ccc(N2CSC3=C(C#N)C(c4cccs4)CC(=O)N3C2)cc1 (stereo unspecified)
EC50 [4]: 50.7 µM (not active)
IC50 [5]: > 50 µM (inactive)
IC50 [6]: 8.18 µM (active)
EC50 [7]: 77.8 µM (not active)
EC50 [8]: 63.3 µM (not active)
IC50 [9]: 13.1 µM (active)

COc1cc(/C=C/C(=O)c2ccc([N+](=O)[O-])o2)ccc1O
IC50 [10]: 28.5 µM (inactive)
IC50 (Large T antigen): 8.65 µM (active)
EC50 [11]: 7.59 µM (active)
EC50 (BJ [12]): 1.09 µM (inconclusive)
EC50 [13]: 2.04 µM (inconclusive)
EC50 (BJ [14]): > 150 µM (not active)
IC50 [15]: 60.4 µM (inactive)
EC50 [16]: 8.16 µM (active)
AC50 [17]: 4.28 µM (active)
EC50 (Streptokinase A): 12.8 µM (active)
EC50 [18]: 3.09 µM (active)
EC50 (BJ [19]): > 150 µM (inconclusive)
EC50 [20]: > 30 µM (not active)
AC50 (INS1): 2.68 µM (active)
EC50 (Streptococcus): 11.8 µM (active)

Cc1ccc(CN=C(S)NC2CCC(C(C)(C)C)CC2)cc1 (stereo unspecified)
IC50 [21]: 48 µM (active)
IC50 [22]: > 100 µM (inactive)
EC50 (Streptokinase A): 13.1 µM (active)
EC50 [18]: 5.46 µM (active)
IC50 [23]: 2.35 µM (active)
EC50 (Streptococcus): > 150 µM (not active)

Reference: ChEMBL document CHEMBL1201862, “PubChem BioAssay data set” (2004)
